Target: Cannabinoid receptor 1 (Mus musculus, UniProt P47746)
Assay: CB1 receptor binding assay
Excerpt: Mouse brain membranes were used as the source material for CB1 receptors. […] Briefly.

Chain of Cannabinoid receptor 1 (P47746 whole entry): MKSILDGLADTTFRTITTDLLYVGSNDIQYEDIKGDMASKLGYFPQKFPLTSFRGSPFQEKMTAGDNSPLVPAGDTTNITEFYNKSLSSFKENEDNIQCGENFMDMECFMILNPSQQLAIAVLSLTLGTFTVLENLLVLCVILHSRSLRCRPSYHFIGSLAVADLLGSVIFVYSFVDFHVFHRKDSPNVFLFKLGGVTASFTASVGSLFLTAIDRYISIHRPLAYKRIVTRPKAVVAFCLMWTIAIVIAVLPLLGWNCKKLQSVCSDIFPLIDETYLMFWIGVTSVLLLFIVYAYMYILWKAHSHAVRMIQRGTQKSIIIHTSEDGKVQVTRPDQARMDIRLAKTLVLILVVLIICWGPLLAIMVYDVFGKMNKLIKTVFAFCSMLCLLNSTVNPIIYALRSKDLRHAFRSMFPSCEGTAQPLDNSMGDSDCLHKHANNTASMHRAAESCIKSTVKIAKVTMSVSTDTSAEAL

`O=S(=O)(NC1CCCOc2c1nn(-c1ccccc1Cl)c2-c1ccc(Cl)cc1)c1ccc(Cl)cc1` (stereo unspecified) [US20240189287, Compound BNS808] showed a Ki of 0.6 nM.

— BindingDB's records for patent US20240189287 (Bionanosim (Bns, 2024)
